In patent US5912153A, “(1,3) β-glucan synthase genes and inducible inhibition of fungal growth using the antisense constructs derived therefrom” (priority 1995, dated 1999):

Target: Neurospora crassa wild type (1,3)β-glucan synthase (crude extract) (Neurospora crassa, UniProt Q7S0A7)
Experiment: (1,3)β-glucan synthase assay with quinate added to wild type crude extract
Format: biochemical
Settings: concentrations as high as 4.0% of quinate added to the assay, data not shown
Experimental: To fresh hyphal pellets was added 20-mls of extraction buffer (25 mM HEPES (pH7.4); 10 mM NaH2 PO4; 600 mM glycerol; 10 mM NaF; 5 mM EDTA and 10 μM GTPy-S). At 4° C., hyphae were disrupted (5×30 second pulses with 2 minute coolings between each pulse) using a Bead Beater (Biospec Products, Bartlesville, Okla.) with 0.5 mm zirconium-silica beads. Lysates were centrifuged at 1000×g for 10 min at […], and used for the enzyme assays as will subsequently be described. Protein concentrations were determined by the method of Bradford using the Bio-Rad protein reagent (BioRad Labs, Hercules, Calif.). The yield was anywhere from 0.9-2.4 mg/ml crude extract depending on the transformant.
(1,3)β-Glucan synthase was assayed using modifications of a procedure previously described. To this end, in vitro reactions contained 50 μg α-amylase (type IIA; Sigma), 1 mM UDP-^14 C-glucose (~50,000 cpm/assay), and 20 μl crude extract in a final volume of 26 μl. Reactions were carried out in V-bottom 96-well microtiter plates (Dynatec Laboratories, Chantilly, Va.) and incubated at 22° C. for 0, 15, 30, 45, and 60 minutes. […]
Wrapped Inotech glass fiber filters were placed for 4-18 hours on a Molecular Dynamics Phosphor Screen. The amount of radioactivity on the filter was determined using a Molecular Dynamics Phosphor Imager Model Sl. […]

Neurospora crassa wild type (1,3)β-glucan synthase (crude extract), sequence (Q7S0A7 1-1955): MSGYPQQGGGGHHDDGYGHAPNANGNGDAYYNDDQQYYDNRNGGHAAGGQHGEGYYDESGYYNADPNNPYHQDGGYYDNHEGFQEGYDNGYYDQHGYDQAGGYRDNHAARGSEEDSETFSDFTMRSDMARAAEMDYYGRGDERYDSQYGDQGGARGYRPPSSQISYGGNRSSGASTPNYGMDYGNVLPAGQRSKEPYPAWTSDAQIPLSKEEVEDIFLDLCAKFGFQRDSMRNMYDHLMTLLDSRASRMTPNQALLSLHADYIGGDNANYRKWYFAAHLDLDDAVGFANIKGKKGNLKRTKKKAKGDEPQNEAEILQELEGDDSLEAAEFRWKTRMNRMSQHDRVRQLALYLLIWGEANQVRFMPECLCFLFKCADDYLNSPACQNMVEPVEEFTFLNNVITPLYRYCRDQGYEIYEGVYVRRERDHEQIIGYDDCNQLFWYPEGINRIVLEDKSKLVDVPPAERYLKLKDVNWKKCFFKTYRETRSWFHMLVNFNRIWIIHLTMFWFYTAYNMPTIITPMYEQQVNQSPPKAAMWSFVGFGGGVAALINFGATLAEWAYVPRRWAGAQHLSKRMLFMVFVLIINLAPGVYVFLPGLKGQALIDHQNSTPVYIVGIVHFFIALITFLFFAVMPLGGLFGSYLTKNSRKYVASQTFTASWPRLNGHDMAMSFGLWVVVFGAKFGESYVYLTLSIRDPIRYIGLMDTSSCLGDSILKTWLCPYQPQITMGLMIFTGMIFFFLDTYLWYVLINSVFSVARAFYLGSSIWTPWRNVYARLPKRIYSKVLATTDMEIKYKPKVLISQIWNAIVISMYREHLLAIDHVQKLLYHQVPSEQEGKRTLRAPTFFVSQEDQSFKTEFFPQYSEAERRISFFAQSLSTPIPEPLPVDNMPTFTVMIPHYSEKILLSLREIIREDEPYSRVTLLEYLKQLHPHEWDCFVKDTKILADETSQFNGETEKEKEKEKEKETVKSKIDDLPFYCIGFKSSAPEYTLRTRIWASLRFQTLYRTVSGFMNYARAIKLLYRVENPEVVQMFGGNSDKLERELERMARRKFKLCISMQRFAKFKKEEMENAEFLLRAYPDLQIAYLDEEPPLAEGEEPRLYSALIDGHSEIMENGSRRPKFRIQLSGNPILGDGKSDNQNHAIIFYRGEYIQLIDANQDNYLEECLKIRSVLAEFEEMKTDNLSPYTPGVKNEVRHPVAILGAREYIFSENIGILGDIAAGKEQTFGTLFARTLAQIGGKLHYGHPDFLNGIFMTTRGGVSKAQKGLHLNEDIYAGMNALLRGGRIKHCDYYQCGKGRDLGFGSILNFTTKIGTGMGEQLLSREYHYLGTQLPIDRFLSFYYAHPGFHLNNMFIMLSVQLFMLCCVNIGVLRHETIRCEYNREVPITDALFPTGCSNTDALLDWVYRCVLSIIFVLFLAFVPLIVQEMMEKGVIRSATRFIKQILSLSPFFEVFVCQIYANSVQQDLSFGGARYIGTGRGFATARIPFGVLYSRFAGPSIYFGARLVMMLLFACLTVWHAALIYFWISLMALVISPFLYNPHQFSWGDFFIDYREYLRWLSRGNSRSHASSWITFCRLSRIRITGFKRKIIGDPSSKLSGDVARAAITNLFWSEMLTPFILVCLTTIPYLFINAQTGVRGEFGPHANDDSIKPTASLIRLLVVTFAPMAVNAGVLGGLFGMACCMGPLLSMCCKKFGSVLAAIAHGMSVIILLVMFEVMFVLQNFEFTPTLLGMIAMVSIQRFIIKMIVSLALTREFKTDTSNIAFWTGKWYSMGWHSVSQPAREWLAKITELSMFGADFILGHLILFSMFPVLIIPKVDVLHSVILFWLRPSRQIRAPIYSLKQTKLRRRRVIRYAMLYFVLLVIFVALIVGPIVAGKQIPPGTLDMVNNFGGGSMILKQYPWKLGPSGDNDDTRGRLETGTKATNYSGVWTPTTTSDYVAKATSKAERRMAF
Neurospora crassa wild type (1,3)β-glucan synthase (crude extract), sequence (Q7RXU8 1-195 partner): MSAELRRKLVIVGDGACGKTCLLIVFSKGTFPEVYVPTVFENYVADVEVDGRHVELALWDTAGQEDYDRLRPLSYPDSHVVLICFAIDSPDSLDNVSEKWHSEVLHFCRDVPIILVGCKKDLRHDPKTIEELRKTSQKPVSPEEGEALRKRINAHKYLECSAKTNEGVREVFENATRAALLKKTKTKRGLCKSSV

O=C(O)C1(O)CC(O)C(O)C(O)C1 (single isomer, unassigned) [quinate, quinic acid]
inhibitory effect of quinate on (1,3)β-glucan synthase activity: did not show an inhibitory effect
